Values after ≈ are worked out from the molar mass of the structure shown. Like-named read-outs stand apart in the source and are kept apart here. One block for each molecule: values may come before it.
What was measured:
[1] = tested on: C. difficile CIP 104282; experiment: Antibacterial activity (MIC); type: cell-based, Clostridium difficile; conditions: Clostridioides difficile, CIP104282
[2] = tested on: S. epidermidis MRCNS (E93); experiment: Antibacterial activity (MIC); type: cell-based; conditions: Staphylococcus epidermidis
[3] = tested on: Staphylococcus aureus MSSA 53.154; experiment: Murine experimental septicaemia, in vivo efficacy; design: species or system mice; conditions: sc
Experimental: Experimental septicaemia was induced in mice as follows. Briefly, male Swiss OF1 mice (IFFA CREDO-Charles River) weighing 18 to 20 grams were infected intraperitoneally with 0.5 mL of a bacterial suspension containing 8.5×10^7 cfu of Staphylococcus aureus MSSA 53.154 (Institut Pasteur). The hybrid molecules were administered subcutaneously at 1 and 6 h post infection. Control and treatment groups at each dose were composed of seven mice. All the infected but untreated control mice died within 9 days. The 50% effective dose (ED50) values were calculated by a computerized program (GraphPad) from the survival rates on day 9 after infection.

[4] = tested on: S. pyogenes CIP 56.41T; experiment: Antibacterial activity (MIC/MBC); type: cell-based, Streptococcus pyogenes; conditions: Streptococcus pyogenes, CIP56
[5] = tested on: S. epidermidis MSCNS (D10); experiment: Antibacterial activity (MIC); type: cell-based; conditions: Staphylococcus epidermidis
[6] = tested on: E. faecalis VRE VanB CIP106998; experiment: Antibacterial activity (MIC); type: cell-based; conditions: Enterococcus faecalis
[7] = tested on: E. faecium VRE VanA CIP107387; experiment: Antibacterial activity (MIC); type: cell-based; conditions: Enterococcus faecium
[8] = tested on: Staphylococcus aureus MSSA CIP 4.83; experiment: Antibacterial activity (MIC/MBC); type: cell-based; conditions: Staphylococcus aureus
[9] = tested on: E. faecalis VRE VanA CIP106996; experiment: Antibacterial activity (MIC); type: cell-based; conditions: Enterococcus faecalis
[10] = tested on: S. aureus MRSA clinical isolate; experiment: Antibacterial activity (MIC); type: cell-based, Staphylococcus aureus; conditions: Staphylococcus aureus, MRSA
[11] = tested on: S. aureus MsrA PUL 5054; experiment: Antibacterial activity (MIC); type: cell-based; conditions: Staphylococcus aureus
[12] = tested on: S. pneumoniae PSSP CQI 201; experiment: Antibacterial activity (MIC); type: cell-based, Streptococcus pneumoniae; conditions: Streptococcus pneumoniae
[13] = tested on: S. pneumoniae PRSP (CQR 162); experiment: Antibacterial activity (MIC); type: cell-based; conditions: Streptococcus pneumoniae, PRSP
[14] = tested on: S. aureus VISA CIP 106757; experiment: Antibacterial activity (MIC); type: cell-based; conditions: Staphylococcus aureus
[15] = tested on: E. coli CIP 54127; experiment: Antibacterial activity (MIC); type: cell-based; conditions: Escherichia coli, CIP54127; E. coli CIP 54127; read-out: MIC
[16] = tested on: E. faecalis VRE CIP 104676; experiment: Antibacterial activity (MIC/MBC); type: cell-based, Enterococcus faecalis; conditions: Enterococcus faecalis, E. faecalis VRE CIP 104676; for MIC: read-out: MIC
[17] = tested on: P. aeruginosa CIP 103467; experiment: Antibacterial activity (MIC); type: cell-based; conditions: Pseudomonas aeruginosa, CIP103467; P. aeruginosa CIP 103467; read-out: MIC
[18] = tested on: H. influenzae CIP 102514; experiment: Antibacterial activity (MIC/MBC); type: cell-based, Haemophilus influenzae; conditions: Haemophilus influenzae, CIP102514
[19] = tested on: B. thuringiensis CIP 104676; experiment: Antibacterial activity (MIC); type: cell-based; conditions: Bacillus thuringiensis, CIP104676; B. thuringiensis CIP 104676; read-out: MIC
[20] = tested on: S. pneumoniae PRSP; experiment: Antibacterial activity (MIC), Table VII; type: cell-based; conditions: Streptococcus pneumoniae; S. pneumoniae PRSP (Table VII); read-out: MIC
[21] = tested on: S. pneumoniae PSSP CIP 6.92; experiment: Antibacterial activity (MIC/MBC); type: cell-based; conditions: Streptococcus pneumoniae, CIP6
[22] = tested on: S. pneumoniae PRSP CIP 104471; experiment: Antibacterial activity (MIC/MBC); type: cell-based, Streptococcus pneumoniae; conditions: Streptococcus pneumoniae
[23] = tested on: M. catarrhalis CIP73.21T; experiment: Antibacterial activity (MIC/MBC); type: cell-based; conditions: Moraxella catarrhalis
[24] = tested on: S. pneumoniae PRSP clinical isolate; experiment: Antibacterial activity (MIC/MBC); type: cell-based, Streptococcus pneumoniae; conditions: Streptococcus pneumoniae
[25] = S. aureus MSSA CIP 4.83, read-out: MIC

SMILES: CN[C@H](CC(C)C)C(=O)N[C@H]1C(=O)N[C@@H](CC(N)=O)C(=O)N[C@H]2C(=O)N[C@H]3C(=O)N[C@H](C(=O)N[C@H](C(=O)O)c4cc(O)cc(O)c4-c4cc3ccc4O)[C@H](O)c3ccc(c(Cl)c3)Oc3cc2cc(c3O[C@@H]2O[C@H](CO)[C@@H](O)[C@H](O)[C@H]2O[C@H]2C[C@](C)(N)[C@H](O)[C@H](C)O2)Oc2ccc(cc2Cl)[C@H]1O [Vancomycin, reference compound]
MIC [1]: 0.31 µg/mL (≈ 0.214 µM)
MIC [2]: 0.78 µg/mL (≈ 0.538 µM)
ED50 [3]: 0.16 mg/kg
MIC [4]: 0.2 µg/mL (≈ 0.138 µM)
MIC [5]: 1.56 µg/mL (≈ 1.08 µM)
MIC [6]: 25 µg/mL (≈ 17.3 µM)
MIC [7]: > 50 µg/mL
MIC [8]: 0.78 µg/mL (≈ 0.538 µM)
MIC [9]: > 50 µg/mL
MIC [10]: 0.78 µg/mL (≈ 0.538 µM)
MIC [11]: 0.75 µg/mL (≈ 0.518 µM)
MIC [12]: 0.2 µg/mL (≈ 0.138 µM)
MIC [13]: 0.39 µg/mL (≈ 0.269 µM)
MIC [14]: 1.56 µg/mL (≈ 1.08 µM)

MIC ([1]; C. difficile CIP 104282, read-out: MIC): 0.16 µg/mL (≈ 0.474 µM)
MIC ([12]; S. pneumoniae PSSP CQI 201, read-out: MIC): 1.25 µg/mL (≈ 3.71 µM)
SMILES: CC(=O)NC[C@H]1CN(c2ccc(N3CCOCC3)c(F)c2)C(=O)O1 [Linezolid, reference compound]

MIC [15]: 0.625 µg/mL
MIC [16]: 0.156 µg/mL
MIC [17]: > 5 µg/mL
MIC [8, 25]: 0.02 µg/mL
MIC ([18]; H. influenzae CIP 102514, read-out: MIC): 0.312 µg/mL
MIC [19]: 0.156 µg/mL
MIC [20]: 0.039 µg/mL
SMILES: Cl.O=C(O)c1cn(C2CC2)c2cc(N3CCN(c4ccnc5c(Cl)cccc45)CC3)c(F)cc2c1=O [PA 1285, 7-[4-(8-Chloroquinolin-4-yl)-piperazin-1-yl]-1-cyclopropopyl-6-fluoro-4-oxo-1,4-dihydroquinoline-3-carboxylic acid hydrochloride salt]

SMILES: CC(=O)OCC1=C(C(=O)O)N2C(=O)[C@@H](NC(=O)CNc3ccnc4cc(C(F)(F)F)ccc34)[C@H]2SC1 [PA 1100, (6R,7R)-3-Acetoxymethyl-7-[2-(7-trifluoromethylquinolin-4-ylamino)-acetylamino]-8-oxo-5-thia-1-aza-bicyclo[4.2.0]oct-2-ene-2-carboxylic acid]
MBC [21]: 0.006 µg/mL (≈ 0.0114 µM)
MIC [21]: 0.006 µg/mL (≈ 0.0114 µM)
ED50 ([3]; mice, subcutaneously at 1 and 6 h post infection, survival on day 9, hybrid molecules formulated in water as their sodium salt, read-out: ED50): 0.16 mg/kg
MBC ([4]; S. pyogenes CIP 56.41T): 0.003 µg/mL (≈ 0.00572 µM)
MIC ([4]; S. pyogenes CIP 56.41T, read-out: MIC): 0.003 µg/mL (≈ 0.00572 µM)
MBC [22]: 0.78 µg/mL (≈ 1.49 µM)
MIC ([22]; read-out: MIC): 0.2 µg/mL (≈ 0.381 µM)
MBC [16]: 25 µg/mL (≈ 47.7 µM)
MIC [16]: 12.5 µg/mL (≈ 23.8 µM)
MBC ([8]; S. aureus MSSA CIP 4.83, read-out: MBC): 25 µg/mL (≈ 47.7 µM)
MIC [8, 25]: 0.2 µg/mL (≈ 0.381 µM)
MBC [18]: 25 µg/mL (≈ 47.7 µM)
MIC [18]: 0.78 µg/mL (≈ 1.49 µM)
MBC [23]: 1.56 µg/mL (≈ 2.97 µM)
MIC [23]: 0.78 µg/mL (≈ 1.49 µM)
MBC [24]: 0.39 µg/mL (≈ 0.744 µM)
MIC ([24]; PRSP, read-out: MIC): 0.39 µg/mL (≈ 0.744 µM)

Reference: patent US20070060558A1 (PALUMED S.A., priority 2004, published 2007)
